From paper PMC8848307 (Journal of medicinal chemistry, 2019)
Where “and” joins values, the source holds several entries; their conditions need not be identical. Equal values may be shown once.

Legend:
[1] = molecular target: human recombinant STAT3 SH2 protein (Homo sapiens, UniProt P40763); assay: Fluorescence polarization; format: binding; details: for times less potent than SI-109 in binding to STAT3: ratio of binding affinities vs SI-109
STAT3 protein [2] = molecular target: T1, STAT3 protein (Homo sapiens, UniProt P40763); assay: Western blotting of STAT3 degradation in Molm-16 cells; format: cell-based; details: Molm-16 cells, ratio of DC50
STAT3 protein [3] = molecular target: T1, STAT3 protein; assay: Western blotting of STAT3 degradation in SU-DHL-1 cells; format: cell-based; details: for times less potent than SD-36 in STAT3 degradation: SU-DHL-1 cells, ratio of DC50; for reducing the levels of STAT3 and pSTAT3^Y705 proteins: SU-DHL-1, up to 5 μM

T1 sequence (P40763 whole entry): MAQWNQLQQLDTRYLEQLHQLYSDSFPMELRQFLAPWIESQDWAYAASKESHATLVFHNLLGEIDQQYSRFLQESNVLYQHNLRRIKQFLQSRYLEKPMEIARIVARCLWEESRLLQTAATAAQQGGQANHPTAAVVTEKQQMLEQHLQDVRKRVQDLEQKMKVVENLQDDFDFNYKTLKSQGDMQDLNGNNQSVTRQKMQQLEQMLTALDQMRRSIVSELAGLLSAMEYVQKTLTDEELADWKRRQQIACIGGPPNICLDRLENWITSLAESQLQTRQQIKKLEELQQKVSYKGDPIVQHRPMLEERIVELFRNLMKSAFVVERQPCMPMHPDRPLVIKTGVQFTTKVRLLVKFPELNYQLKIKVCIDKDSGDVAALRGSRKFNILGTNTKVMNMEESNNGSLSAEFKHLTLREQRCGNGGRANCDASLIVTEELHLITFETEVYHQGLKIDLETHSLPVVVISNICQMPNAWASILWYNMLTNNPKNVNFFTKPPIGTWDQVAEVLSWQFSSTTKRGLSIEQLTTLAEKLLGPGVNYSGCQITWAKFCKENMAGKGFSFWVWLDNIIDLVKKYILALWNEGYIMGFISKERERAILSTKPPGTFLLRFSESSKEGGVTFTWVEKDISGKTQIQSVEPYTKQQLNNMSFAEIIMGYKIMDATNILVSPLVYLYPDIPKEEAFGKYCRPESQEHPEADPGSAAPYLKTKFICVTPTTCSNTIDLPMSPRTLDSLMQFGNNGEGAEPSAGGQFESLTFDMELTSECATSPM
Chain of human recombinant STAT3 SH2 protein (P40763 127-688): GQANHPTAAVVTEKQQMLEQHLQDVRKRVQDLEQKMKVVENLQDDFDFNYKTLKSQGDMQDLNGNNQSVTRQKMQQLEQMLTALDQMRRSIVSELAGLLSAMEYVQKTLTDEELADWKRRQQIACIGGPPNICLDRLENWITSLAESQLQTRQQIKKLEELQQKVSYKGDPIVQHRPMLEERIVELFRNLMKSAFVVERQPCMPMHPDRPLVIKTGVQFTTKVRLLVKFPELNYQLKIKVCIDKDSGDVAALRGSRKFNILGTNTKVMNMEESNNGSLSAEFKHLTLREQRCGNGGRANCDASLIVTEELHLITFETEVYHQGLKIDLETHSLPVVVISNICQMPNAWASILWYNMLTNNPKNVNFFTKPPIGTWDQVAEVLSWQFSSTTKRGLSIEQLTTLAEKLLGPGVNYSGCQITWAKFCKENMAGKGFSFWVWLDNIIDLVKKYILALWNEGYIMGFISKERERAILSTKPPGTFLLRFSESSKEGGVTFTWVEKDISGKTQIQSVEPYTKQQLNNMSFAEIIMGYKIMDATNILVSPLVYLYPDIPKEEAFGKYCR

Compound	times less potent than SD-36 in STAT3 degradation (STAT3 protein [2])	times less potent than SD-36 in STAT3 degradation (STAT3 protein [3]) [times]	times less potent than SI-109 in binding to STAT3 [1] [times]	also measured
NC(=O)CC[C@H](NC(=O)[C@@H]1CC[C@@H]2CCCC[C@H](NC(=O)c3cc4cc(CP(=O)(O)O)ccc4[nH]3)C(=O)N21)C(=O)NCc1ccccc1 [Compound 3, (2-((3S,6S)-3-((S)-5-Amino-1-(benzylamino)-1,5-dioxopentan-2-ylcarbamoyl)-5-oxodecahydropyrrolo[1,2-a]azocin-6-ylcarbamoyl)-1H-indol-5-yl)methylphosphonic Acid]				times weaker than 2 in binding to STAT3 ([1]; ratio of Ki vs compound 2): 30 times
NC(=O)CC[C@H](NC(=O)[C@@H]1CC[C@@H]2CCN(C(=O)CCCCCC#Cc3cccc4c3CN(C3CCC(=O)NC3=O)C4=O)C[C@H](NC(=O)c3cc4cc(C(F)(F)P(=O)(O)O)ccc4[nH]3)C(=O)N21)C(=O)NCc1ccccc1 (stereo partly drawn) [Compound 30, ((2-(((5S,8S,10aR)-8-(((S)-5-Amino-1-(benzylamino)-1,5-dioxopentan-2-yl)carbamoyl)-3-(8-(2-(2,6-dioxopiperidin-3-yl)-1-oxoisoindolin-4-yl)oct-7-ynoyl)-6-oxodecahydropyrrolo-[1,2-a][1,5]diazocin-5-yl)carbamoyl) −1H-indol-5-yl)difluoromethyl)phosphonic Acid]	4 times	2		
C/C(=C\C(=O)N[C@H]1CN(C(=O)CCCCCC#Cc2cccc3c2CN(C2CCC(=O)NC2=O)C3=O)CC[C@H]2CC[C@@H](C(=O)N[C@@H](CCC(N)=O)C(=O)NC(c3ccccc3)c3ccccc3)N2C1=O)c1ccc(C(F)(F)P(=O)(O)O)cc1 (stereo partly drawn) [Compound 34, ((4-((E)-4-(((5S,8S,10aR)-8-(((S)-5-Amino-1-(benzhydrylamino)-1,5-dioxopentan-2-yl)carbamoyl)-3-(8-(2-(2,6-dioxopiperidin-3-yl)-1-oxoisoindolin-4-yl)oct-7-ynoyl)-6-oxodecahydropyrrolo[1,2-a][1,5]diazocin-5-yl)amino)-4-oxobut-2-en-2-yl)phenyl)difluoromethyl)phosphonic Acid]	> 70 times			effect on the levels of STAT3 and pSTAT3^Y705 (STAT3 protein [3]; SU-DHL-1, concentrations up to 10 μM): fails to degrade; reducing the levels of STAT3 and pSTAT3^Y705 proteins (STAT3 protein [3]): ineffective
NC(=O)CC[C@H](NC(=O)[C@@H]1CC[C@@H]2CCN(C(=O)CCCCCC#Cc3cccc4c3C(=O)N(C3CCC(=O)NC3=O)C4=O)C[C@H](NC(=O)c3cc4cc(C(F)(F)P(=O)(O)O)ccc4[nH]3)C(=O)N21)C(=O)NC(c1ccccc1)c1ccccc1 (stereo partly drawn) [Compound 27, ((2-(((5S,8S,10aR)-8-(((S)-5-Amino-1-(benzhydrylamino)-1,5-dioxopentan-2-yl)carbamoyl)-3-(8-(2-(2,6-dioxopiperidin-3-yl)-1,3-dioxoisoindolin-4-yl)oct-7-ynoyl)-6-oxodecahydropyrrolo[1,2-a][1,5]diazocin-5-yl)carbamoyl)-1H-indol-5-yl)difluoromethyl)phosphonic Acid]	> 50 times			reducing the levels of STAT3 and pSTAT3^Y705 proteins (STAT3 protein [3]): ineffective
CC(=O)N1CC[C@H]2CC[C@@H](C(=O)N[C@@H](CCC(N)=O)C(=O)NC(c3ccccc3)c3ccccc3)N2C(=O)[C@@H](NC(=O)c2cc3cc(OP(=O)(O)O)ccc3[nH]2)C1 [Compound 9, 2-(((5S,8S,10aR)-3-Acetyl-8-(((S)-5-amino-1-(benzhydrylamino)-1,5-dioxopentan-2-yl)carbamoyl)-6-oxodecahydropyrrolo[1,2-a][1,5]diazocin-5-yl)carbamoyl)-1H-indol-5-yl Dihydrogen Phosphate]			2	
NC(=O)CC[C@H](NC(=O)[C@@H]1CC[C@@H]2CCN(CCCCCCC#Cc3cccc4c3CN(C3CCC(=O)NC3=O)C4=O)C[C@H](NC(=O)c3cc4cc(C(F)(F)P(=O)(O)O)ccc4[nH]3)C(=O)N21)C(=O)NC(c1ccccc1)c1ccccc1 (stereo partly drawn) [Compound 17, ((2-(((5S,8S,10aR)-8-(((S)-5-Amino-1-(benzhydrylamino)-1,5-dioxopentan-2-yl)carbamoyl)-3-(8-(2-(2,6-dioxopiperidin-3-yl)-1-oxoisoindolin-4-yl)oct-7-yn-1-yl)-6-oxodecahydropyrrolo[1,2-a][1,5]diazocin-5-yl)carbamoyl)-1H-indol-5-yl)difluoromethyl)phosphonic Acid]	> 10 times	30		
NC(=O)CC[C@H](NC(=O)[C@@H]1CC[C@@H]2CCCC[C@H](NC(=O)c3cc4cc(C(F)(F)P(=O)(O)O)ccc4[nH]3)C(=O)N21)C(=O)NCc1ccccc1 [Compound 4, (2-((3S,6S)-3-((S)-5-Amino-1-(benzylamino)-1,5-dioxopentan-2-ylcarbamoyl)-5-oxodecahydropyrrolo[1,2-a]azocin-6-ylcarbamoyl)-1H-indol-5-yl)difluoromethylphosphonic Acid]				times more potent than 3 in binding to STAT3 ([1]; ratio of Ki vs compound 3): > 100 times
CC(=O)N1CC[C@H]2CC[C@@H](C(=O)N[C@@H](CCC(N)=O)C(=O)NC(c3ccccc3)c3ccccc3)N2C(=O)[C@@H](NC(=O)/C=C(\C)c2ccc(C(F)(F)P(=O)(O)O)cc2)C1 [Compound 11, ((4-((E)-4-(((5S,8S,10aR)-3-Acetyl-8-(((S)-5-amino-1-(benzhydrylamino)-1,5-dioxopentan-2-yl)carbamoyl)-6-oxodecahydropyrrolo[1,2-a][1,5]diazocin-5-yl)amino)-4-oxobut-2-en-2-yl)phenyl)difluoromethyl)phosphonic Acid]			> 10	
CNC(=O)[C@H](CCC(N)=O)NC(=O)[C@@H]1CC[C@@H]2CCN(C(=O)CCCCCC#Cc3cccc4c3CN(C3CCC(=O)NC3=O)C4=O)C[C@H](NC(=O)c3cc4cc(C(F)(F)P(=O)(O)O)ccc4[nH]3)C(=O)N21 (stereo partly drawn) [Compound 31, ((2-(((5S,8S,10aR)-8-(((S)-5-Amino-1-(methylamino)-1,5-dioxopentan-2-yl)carbamoyl)-3-(8-(2-(2,6-dioxopiperidin-3-yl)-1-oxoisoindolin-4-yl)oct-7-ynoyl)-6-oxodecahydropyrrolo-[1,2-a][1,5]diazocin-5-yl)carbamoyl)-1H-indol-5-yl)difluoromethyl)phosphonic Acid]	10 times and > 10 times	30		
CC(=O)N1CC[C@H]2CC[C@@H](C(=O)N[C@@H](CCC(N)=O)C(=O)NC(c3ccccc3)c3ccccc3)N2C(=O)[C@@H](NC(=O)c2cc3cc(CP(=O)(O)O)ccc3[nH]2)C1 [Compound 10, ((2-(((5S,8S,10aR)-3-Acetyl-8-(((S)-5-amino-1-(benzhydrylamino)-1,5-dioxopentan-2-yl)carbamoyl)-6-oxodecahydropyrrolo[1,2-a][1,5]diazocin-5-yl)carbamoyl)-1 H-indol-5-yl)methyl)phosphonic Acid]			14	
